Measured values taken from patent US9211310B2, “Use of a Chinese medicine composition in preparing medicaments for treating secondary prevention of myocardial infarction” (TASLY PHARMACEUTICAL GROUP CO., LTD, priority 2010, dated 2015).

Tested on: patients after acute myocardial infarction
Assay: Life quality, Seattle Angina Questionnaire (SAQ), same clinical trial
Assay type: in vivo, human
Conditions: FAS; 1 month after treatment
Description: 3508 patients who were in accordance with the diagnostic standards of AMI for 28 days to 2 years and differentiated as Qi deficiency and blood stagnation syndrome by TCM were studied. 0.5 g Chinese medicine composition prepared by the method of EXAMPLE 1 (Coded as QSYQ) was administrated half an hour after meal, 3 times per day.
There were 19 questions in the Seattle angina questionnaire (SAQ), including 5 parts: physical limitation (PL), anginal stability (AS), anginal frequency (AF), treatment satisfaction (TS) and disease perception (DP). After being given necessary explanation by doctors, the questions were answered independently by patients.
They included the overall survival time, angina pectoris score, TCM symptom score and life quality score, where angina pectoris score, TCM symptom score and life quality score were evaluated at randomization, in 1st, 3rd, 6th, 9th, 12th month after treatment and 18th month after follow-up.
All evaluation results of SAQ were described during the period of observation, and Wilcoxon rank sum test was used for inter-group comparison.
The evaluation results in the SAQ were depicted in different observations, and inter-group comparison was tested by Wilcoxon Rank-sum test.

Q: How did the “8th question: Highly satisfied, patients (%)” value turn out when CC(=O)Oc1ccccc1C(=O)O [Control group, aspirine] was run?
A: The value was “(17.37%)”.

Q: What about the “8th question: Mostly dissatisfied, patients (%)” value of the same compound?
A: Its value is “(4.07%)”.

Q: What about the “8th question: Mostly satisfied, patients (%)” value of the same compound?
A: The value was “(50.29%)”.

Q: And the “8th question: Partly satisfied, patients (%)” value?
A: Its value is “(27.92%)”.

Q: And the “9th question: Few, patients (%)” value?
A: The value was “(26.78%)”.

Q: And the “9th question: Mild, patients (%)” value?
A: The value was “(36.07%)”.

Q: What about the “9th question: Moderate, patients (%)” value of the same compound?
A: The value was “(18.81%)”.

Q: And the “9th question: Severe, patients (%)” value?
A: Its value is “(2.24%)”.

Q: What about the “9th question: Uneffective, patients (%)” value of the same compound?
A: The value was “(16.11%)”.

Q: And the “10th question: Dissatisfied, patients (%)” value?
A: Its value is “(22.71%)”.

Q: And the “10th question: Highly satisfied, patients (%)” value?
A: Its value is “(4.07%)”.

Q: And the “10th question: Mostly dissatisfied, patients (%)” value?
A: Its value is “(22.94%)”.

Q: And the “10th question: Mostly satisfied, patients (%)” value?
A: Its value is “(20.70%)”.

Q: And the “10th question: Partly satisfied, patients (%)” value?
A: Its value is “(29.59%)”.

Q: What about the “11th question: Continuously worried, patients (%)” value of the same compound?
A: Its value is “(6.71%)”.

Q: And the “11th question: No worried, patients (%)” value?
A: Its value is “(4.70%)”.

Q: And the “11th question: Occasionally worried, patients (%)” value?
A: The value was “(40.94%)”.

Q: What about the “11th question: Often worried, patients (%)” value of the same compound?
A: The value was “(20.93%)”.

Q: And the “11th question: Seldom worried, patients (%)” value?
A: The value was “(26.72%)”.

Q: And the “SAQ 4th question, 1-2 times per week: % of patients” value?
A: The value was “(17.55%)”.

Q: What about the “SAQ 4th question, 1-2 times per week: number of patients” value of the same compound?
A: Its value is 306.

Q: And the “SAQ 4th question, 1-3 times per day: % of patients” value?
A: The value was “(6.54%)”.

Q: And the “SAQ 4th question, 1-3 times per day: number of patients” value?
A: The value was 114.

Q: And the “SAQ 4th question, <1 time per week: % of patients” value?
A: Its value is “(9.58%)”.

Q: What about the “SAQ 4th question, <1 time per week: number of patients” value of the same compound?
A: Its value is 167.

Q: What about the “SAQ 4th question, Not used: % of patients” value of the same compound?
A: The value was “(53.10%)”.

Q: What about the “SAQ 4th question, Not used: number of patients” value of the same compound?
A: The value was 926.

Q: And the “SAQ 4th question, ≧3 times per week: % of patients” value?
A: The value was “(13.19%)”.

Q: What about the “SAQ 4th question, ≧3 times per week: number of patients” value of the same compound?
A: Its value is 230.

Q: What about the “SAQ 4th question, ≧4 times per day: % of patients” value of the same compound?
A: Its value is “(0.06%)”.

Q: What about the “SAQ 4th question, ≧4 times per day: number of patients” value of the same compound?
A: Its value is 1.

Q: What about the “SAQ 5th question, Few: % of patients” value of the same compound?
A: Its value is “(21.56%)”.

Q: What about the “SAQ 5th question, Few: number of patients” value of the same compound?
A: The value was 376.

Q: What about the “SAQ 5th question, Mild: % of patients” value of the same compound?
A: Its value is “(28.90%)”.

Q: And the “SAQ 5th question, Mild: number of patients” value?
A: Its value is 504.

Q: And the “SAQ 5th question, Moderate: % of patients” value?
A: The value was “(17.43%)”.

Q: What about the “SAQ 5th question, Moderate: number of patients” value of the same compound?
A: The value was 304.

Q: And the “SAQ 5th question, None: % of patients” value?
A: The value was “(26.32%)”.

Q: And the “SAQ 5th question, None: number of patients” value?
A: The value was 459.

Q: What about the “SAQ 5th question, Not medicated by doctors: % of patients” value of the same compound?
A: The value was “(3.38%)”.

Q: What about the “SAQ 5th question, Not medicated by doctors: number of patients” value of the same compound?
A: Its value is 59.

Q: And the “SAQ 5th question, Severe: % of patients” value?
A: Its value is “(2.41%)”.

Q: What about the “SAQ 5th question, Severe: number of patients” value of the same compound?
A: The value was 42.

Q: And the “SAQ 6th question, Dissatisfied: % of patients” value?
A: Its value is “(0.46%)”.

Q: What about the “SAQ 6th question, Dissatisfied: number of patients” value of the same compound?
A: Its value is 8.

Q: And the “SAQ 6th question, Highly consent: % of patients” value?
A: Its value is “(18.00%)”.

Q: What about the “SAQ 6th question, Highly consent: number of patients” value of the same compound?
A: Its value is 314.

Q: And the “SAQ 6th question, Mostly dissatisfied: % of patients” value?
A: Its value is “(4.01%)”.

Q: What about the “SAQ 6th question, Mostly dissatisfied: number of patients” value of the same compound?
A: The value was 70.

Q: And the “SAQ 6th question, Mostly satisfied: % of patients” value?
A: The value was “(49.14%)”.

Q: What about the “SAQ 6th question, Mostly satisfied: number of patients” value of the same compound?
A: Its value is 857.

Q: And the “SAQ 6th question, Partly satisfied: % of patients” value?
A: Its value is “(28.38%)”.

Q: And the “SAQ 6th question, Partly satisfied: number of patients” value?
A: The value was 495.

Q: And the “SAQ 7th question, Dissatisfied: % of patients” value?
A: Its value is “(0.17%)”.

Q: And the “SAQ 7th question, Dissatisfied: number of patients” value?
A: The value was 3.

Q: What about the “SAQ 7th question, Highly satisfied: % of patients” value of the same compound?
A: Its value is “(23.31%)”.

Q: What about the “SAQ 7th question, Highly satisfied: number of patients” value of the same compound?
A: The value was 406.

Q: What about the “SAQ 7th question, Mostly dissatisfied: % of patients” value of the same compound?
A: The value was “(3.10%)”.

Q: What about the “SAQ 7th question, Mostly dissatisfied: number of patients” value of the same compound?
A: Its value is 54.

Q: What about the “SAQ 7th question, Mostly satisfied: % of patients” value of the same compound?
A: The value was “(49.94%)”.

Q: And the “SAQ 7th question, Mostly satisfied: number of patients” value?
A: The value was 870.

Q: What about the “SAQ 7th question, Partly satisfied: % of patients” value of the same compound?
A: Its value is “(23.48%)”.

Q: What about the “SAQ 7th question, Partly satisfied: number of patients” value of the same compound?
A: The value was 409.

Q: And the “SAQ Question 1-1 Mildly limited, number of patients” value?
A: Its value is 24.

Q: And the “SAQ Question 1-1 Mildly limited, percent of patients” value?
A: Its value is “(1.38%)”.

Q: What about the “SAQ Question 1-1 Moderately limited, number of patients” value of the same compound?
A: The value was 11.

Q: And the “SAQ Question 1-1 Moderately limited, percent of patients” value?
A: The value was “(0.63%)”.

Q: What about the “SAQ Question 1-1 Not limited, number of patients” value of the same compound?
A: The value was 1607.

Q: And the “SAQ Question 1-1 Not limited, percent of patients” value?
A: Its value is “(92.20%)”.

Q: What about the “SAQ Question 1-1 Other reasons, number of patients” value of the same compound?
A: Its value is 4.

Q: What about the “SAQ Question 1-1 Other reasons, percent of patients” value of the same compound?
A: The value was “(0.23%)”.

Q: What about the “SAQ Question 1-1 Severely limited, number of patients” value of the same compound?
A: Its value is 2.

Q: What about the “SAQ Question 1-1 Severely limited, percent of patients” value of the same compound?
A: Its value is “(0.11%)”.

Q: What about the “SAQ Question 1-1 Slightly limited, number of patients” value of the same compound?
A: The value was 95.

Q: And the “SAQ Question 1-1 Slightly limited, percent of patients” value?
A: Its value is “(5.45%)”.

Q: And the “SAQ Question 1-2 Mildly limited, number of patients” value?
A: Its value is 32.

Q: And the “SAQ Question 1-2 Mildly limited, percent of patients” value?
A: Its value is “(1.84%)”.
